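Dose response: 5 concentrations. Exposure: 48 h. Format: 96-well plates. Endpoint: linear interpolation; highest concentration if not reached. TGI is the concentration that stops growth completely.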

Nine compounds from PubChem BioAssay (NCI) can be followed below.

Some test systems named below: SR leukemia; HOP-92 NSCLC; OVCAR-4 ovarian; NCI-H23 lung; LOX IMVI melanoma; COLO 205 colon; HOP-62 NSCLC; UACC-257 melanoma; M14 melanoma; SN12C renal; HCT-116 colon; TK-10 renal; ACHN renal; RPMI-8226 leukemia; SK-MEL-28 melanoma; CAKI-1 renal; PC-3 prostate; DU-145 prostate; MDA-MB-435.
Assay in all cases: NCI anticancer screen, dose series, 48 h

With `COC(=O)CCC(NC(=S)N/N=C/c1ccccn1)C(=O)OC` (configuration not stated), the TGI with SR leukemia, in the assay on HOP-92 NSCLC, with OVCAR-4 ovarian, in the assay on NCI-H23 lung, in the assay on LOX IMVI melanoma and in the assay on COLO 205 colon was greater than 100 µM in each case. Besides, the TGI with HOP-62 NSCLC, in the assay on UACC-257 melanoma, in the assay with M14 melanoma, with SN12C renal, in the assay with HCT-116 colon and in the assay with TK-10 renal was greater than 100 µM each time. In addition, the TGI with ACHN renal, in the assay on RPMI-8226 leukemia and in the assay on SK-MEL-28 melanoma was greater than 100 µM each time.
With `CC(=O)C1C(=O)C(=O)N(c2ccccc2)C1=O` (configuration not stated), the TGI in the assay on HOP-92 NSCLC, with OVCAR-4 ovarian, with CAKI-1 renal, with NCI-H23 lung, in the assay with PC-3 prostate and in the assay with LOX IMVI melanoma was greater than 100 µM each time. Also, the TGI with DU-145 prostate, in the assay with COLO 205 colon, in the assay with MDA-MB-435, with HOP-62 NSCLC, in the assay on UACC-257 melanoma and in the assay with M14 melanoma was greater than 100 µM each time. Further, the TGI in the assay on SN12C renal, in the assay with HCT-116 colon, in the assay on TK-10 renal, in the assay on ACHN renal and in the assay with SK-MEL-28 melanoma was greater than 100 µM each time.
As for `COc1cccc2ccc(C(=O)c3ccccc3)nc12`, the TGI with SR leukemia, in the assay on OVCAR-4 ovarian, with CAKI-1 renal, in the assay with NCI-H23 lung, with LOX IMVI melanoma and in the assay with COLO 205 colon was greater than 100 µM in each case. Besides, the TGI with HOP-62 NSCLC, with M14 melanoma, with SN12C renal, in the assay with HCT-116 colon, with TK-10 renal and in the assay on ACHN renal was greater than 100 µM each time. Also, the TGI in the assay with RPMI-8226 leukemia and with SK-MEL-28 melanoma was greater than 100 µM throughout.
Turning to `O=C(CC(CC(=O)Oc1c(Br)cc(Br)cc1C(=O)O)C(=O)Oc1c(Br)cc(Br)cc1C(=O)O)Oc1c(Br)cc(Br)cc1C(=O)O`, the TGI is 49.8 µM in the assay with HOP-92 NSCLC; greater than 100 µM with OVCAR-4 ovarian; greater than 100 µM with CAKI-1 renal; greater than 100 µM in the assay on NCI-H23 lung; greater than 100 µM in the assay on LOX IMVI melanoma; greater than 100 µM in the assay on COLO 205 colon. Also, the TGI in the assay on HOP-62 NSCLC, with UACC-257 melanoma, in the assay with M14 melanoma, in the assay on SN12C renal, in the assay with HCT-116 colon and with TK-10 renal was greater than 100 µM each time. The TGI in the assay with ACHN renal, in the assay on RPMI-8226 leukemia and in the assay on SK-MEL-28 melanoma was greater than 100 µM each time.
With `Cc1cc([N+](=O)[O-])ccc1Sc1c2ccccc2nc2cc(Cl)ccc12`, the TGI was greater than 100 µM in the assay on SR leukemia; 76.6 µM in the assay with HOP-92 NSCLC; greater than 100 µM in the assay with OVCAR-4 ovarian; 84 µM in the assay with CAKI-1 renal; 76.9 µM with NCI-H23 lung; 86.8 µM in the assay with LOX IMVI melanoma. Also, the TGI is greater than 100 µM in the assay on COLO 205 colon; greater than 100 µM in the assay on HOP-62 NSCLC; greater than 100 µM with UACC-257 melanoma; greater than 100 µM in the assay on M14 melanoma; 92.7 µM in the assay with SN12C renal; 63.8 µM in the assay on HCT-116 colon. In addition, the TGI with TK-10 renal, in the assay on ACHN renal and in the assay with SK-MEL-28 melanoma was greater than 100 µM each time.
Take `O=C(C=C1SCCS1)/C=C\c1ccc(Cl)cc1`: the TGI in the assay on SR leukemia, in the assay with HOP-92 NSCLC, in the assay on OVCAR-4 ovarian, in the assay with CAKI-1 renal, in the assay on NCI-H23 lung and in the assay with LOX IMVI melanoma was greater than 100 µM throughout. The TGI in the assay on COLO 205 colon, in the assay on HOP-62 NSCLC, in the assay on UACC-257 melanoma, in the assay with M14 melanoma, with SN12C renal and in the assay with HCT-116 colon was greater than 100 µM each time. The TGI in the assay on TK-10 renal, in the assay with RPMI-8226 leukemia and in the assay on SK-MEL-28 melanoma was greater than 100 µM throughout.
As to `CC(=O)OC1CC2CCN3C(=O)c4cc5c(cc4[C@H](C1OC(C)=O)C23)OCO5` (some centres not stated), the TGI with SR leukemia, with NCI-H23 lung, in the assay with LOX IMVI melanoma, with COLO 205 colon, with HOP-62 NSCLC and with UACC-257 melanoma was greater than 100 µM throughout. The TGI in the assay on M14 melanoma, in the assay with SN12C renal, in the assay with HCT-116 colon, with TK-10 renal, in the assay on ACHN renal and in the assay on RPMI-8226 leukemia was greater than 100 µM throughout. In the assay on SK-MEL-28 melanoma, this compound showed a TGI greater than 100 µM.
As to `Oc1cc(O)c2ccc(-c3ccc(O)c(O)c3)[o+]c2c1`, the TGI with HOP-92 NSCLC, in the assay with OVCAR-4 ovarian, with CAKI-1 renal, with NCI-H23 lung, in the assay on PC-3 prostate and in the assay with LOX IMVI melanoma was greater than 100 µM each time. The TGI with MDA-MB-435, in the assay on HOP-62 NSCLC, in the assay with UACC-257 melanoma, in the assay with M14 melanoma, with SN12C renal and with HCT-116 colon was greater than 100 µM each time. Besides, the TGI in the assay on TK-10 renal, in the assay on ACHN renal, in the assay with RPMI-8226 leukemia and in the assay with SK-MEL-28 melanoma was greater than 100 µM throughout.
As for `Clc1ccc(Nc2nnc(CCCCCCCCc3nnc(Nc4ccc(Cl)cc4)o3)o2)cc1`, the TGI with HOP-92 NSCLC is 98.7 µM; with OVCAR-4 ovarian it was greater than 100 µM; in the assay with CAKI-1 renal, greater than 100 µM; with NCI-H23 lung, 90.6 µM; with PC-3 prostate, greater than 100 µM; with DU-145 prostate, greater than 100 µM. In addition, the TGI in the assay with COLO 205 colon, in the assay on MDA-MB-435, with HOP-62 NSCLC, in the assay on UACC-257 melanoma, in the assay on M14 melanoma and in the assay with SN12C renal was greater than 100 µM throughout. For the same compound, the TGI is 34.5 µM with HCT-116 colon; greater than 100 µM in the assay with TK-10 renal; greater than 100 µM in the assay with ACHN renal; 79.7 µM with RPMI-8226 leukemia; greater than 100 µM with SK-MEL-28 melanoma.
